Data as given in the supplement of paper PMC10331698.
± gives the standard deviation of the averaged measurements.

Key:
Assay in all cases: level (log10 ratio to DMSO vehicle control); higher = higher biomarker level / cell amount than vehicle control
[1] = compound: COC(=O)C(F)(F)C(F)(F)OC(F)(C(F)(F)F)C(F)(F)OC(F)=C(F)F [Methyl perfluoro(3-(1-ethenyloxypropan-2-yloxy)propanoate)]; conditions: in DMSO
Protocol: (§1)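 BioMAP Diversity Plus panel of 12 human primary cell co-culture systems (3C, 4H, LPS, SAg, BT, BF4T, BE3C, CASM3C, HDF3CGF, KF3CT, MyoF, Mphg). Compounds were added 1 h before stimulation and left for 24 h (MyoF 48 h; BT 72 h for soluble read-outs or 6 d for IgG). Biomarkers were read by ELISA, cytotoxicity by SRB, PBMC viability and proliferation by Alamar Blue. Each well value was divided by the mean of 8 DMSO control wells on the same plate and log10 transformed; duplicate blinded samples were tested at 4 concentrations.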

[2] = compound: FC(F)(F)C(F)(F)C(F)(F)C(F)(F)C(F)(F)C(F)(F)C(F)(F)I [1-Iodopentadecafluoroheptane]; conditions: in DMSO
Protocol: as §1

[3] = compound: FC(F)(F)C(F)(F)CNCC(F)(F)C(F)(F)F [Bis(1H,1H-perfluoropropyl)amine]; conditions: in DMSO
Protocol: as §1

[4] = compound: O=S(=O)(O)CCC(F)(F)C(F)(F)C(F)(F)C(F)(F)C(F)(F)C(F)(F)F [6:2 Fluorotelomer sulfonic acid]; conditions: in DMSO
Protocol: as §1

[5] = compound: NS(=O)(=O)C(F)(F)C(F)(F)C(F)(F)C(F)(F)C(F)(F)C(F)(F)F [Perfluorohexanesulfonamide]; conditions: in DMSO
Protocol: as §1

Nonafluoropentanamide = compound: NC(=O)C(F)(F)C(F)(F)C(F)(F)C(F)(F)F [Nonafluoropentanamide]; conditions: in DMSO
Protocol: as §1

[6] = compound: C=CC(=O)OCC(F)(F)C(F)(F)C(F)(F)COC(=O)C=C [1H,1H,5H,5H-Perfluoro-1,5-pentanediol diacrylate]; conditions: 6700 nM; in DMSO
Protocol: as §1

Hexafluoroamylene glycol = compound: OCC(F)(F)C(F)(F)C(F)(F)CO [Hexafluoroamylene glycol]; conditions: in DMSO
Protocol: as §1

## CASM3C:LDLR
[1]; 6700 nM
  level (log10): -0.0035 ± 0.005
[1]; 20000 nM
  level (log10): 0.0085 ± 0.033
[2]; 6700 nM
  level (log10): -0.002 ± 0.013
[2]; 20000 nM
  level (log10): -0.014
[3]; 6700 nM
  level (log10): -0.005 ± 0.0099
[3]; 20000 nM
  level (log10): -0.0065 ± 0.0021
[3]; 60000 nM
  level (log10): -0.001 ± 0.025
[4]; 6700 nM
  level (log10): 0.009 ± 0.0057
[4]; 20000 nM
  level (log10): -0.001 ± 0.018
[4]; 60000 nM
  level (log10): 0.011 ± 0.04
[5]; 6700 nM
  level (log10): -0.003 ± 0.014
[5]; 20000 nM
  level (log10): -0.0105 ± 0.005
[5]; 60000 nM
  level (log10): -0.04 ± 0.011
Nonafluoropentanamide; 6700 nM
  level (log10): 0.0055 ± 0.059
Nonafluoropentanamide; 20000 nM
  level (log10): -0.035 ± 0.0028
Nonafluoropentanamide; 60000 nM
  level (log10): 0.021 ± 0.072
[6]
  level (log10): -0.004 ± 0.0014
Hexafluoroamylene glycol; 6700 nM
  level (log10): -0.007 ± 0.013
Hexafluoroamylene glycol; 20000 nM
  level (log10): -0.0095 ± 0.019
Hexafluoroamylene glycol; 60000 nM
  level (log10): 0.024 ± 0.037

## KF3CT:CD54/ICAM-1
[1]; 6700 nM
  level (log10): -0.025
[1]; 20000 nM
  level (log10): -0.008 ± 0.0071
[2]; 6700 nM
  level (log10): -0.015 ± 0.0085
[2]; 20000 nM
  level (log10): -0.018 ± 0.021
[3]; 6700 nM
  level (log10): -0.011 ± 0.011
[3]; 20000 nM
  level (log10): -0.008 ± 0.0085
[3]; 60000 nM
  level (log10): 0.012 ± 0.018
[4]; 6700 nM
  level (log10): -0.0095 ± 0.0064
[4]; 20000 nM
  level (log10): -0.0265 ± 0.0035
[4]; 60000 nM
  level (log10): -0.037 ± 0.0071
[5]; 6700 nM
  level (log10): -0.0235 ± 0.015
[5]; 20000 nM
  level (log10): -0.019 ± 0.0085
[5]; 60000 nM
  level (log10): -0.0285 ± 0.025
Nonafluoropentanamide; 6700 nM
  level (log10): -0.018 ± 0.0071
Nonafluoropentanamide; 20000 nM
  level (log10): -0.016 ± 0.0071
Nonafluoropentanamide; 60000 nM
  level (log10): -0.025 ± 0.0028
[6]
  level (log10): -0.076 ± 0.0042
Hexafluoroamylene glycol; 6700 nM
  level (log10): 0.0035 ± 0.021
Hexafluoroamylene glycol; 20000 nM
  level (log10): -0.0155 ± 0.012
Hexafluoroamylene glycol; 60000 nM
  level (log10): -0.013 ± 0.0099

## 4H:CD62P/P-selectin
[1]; 6700 nM
  level (log10): 0.0115 ± 0.079
[1]; 20000 nM
  level (log10): 0.0095 ± 0.073
[2]; 6700 nM
  level (log10): 0.0125 ± 0.021
[2]; 20000 nM
  level (log10): 0.0035 ± 0.022
[3]; 6700 nM
  level (log10): -0.0155 ± 0.025
[3]; 20000 nM
  level (log10): -0.02 ± 0.0028
[3]; 60000 nM
  level (log10): 0.005 ± 0.013
[4]; 6700 nM
  level (log10): -0.004 ± 0.064
[4]; 20000 nM
  level (log10): -0.003 ± 0.051
[4]; 60000 nM
  level (log10): -0.013 ± 0.054
[5]; 6700 nM
  level (log10): -0.006 ± 0.014
[5]; 20000 nM
  level (log10): 0.055 ± 0.062
[5]; 60000 nM
  level (log10): -0.0045 ± 0.012
Nonafluoropentanamide; 6700 nM
  level (log10): -0.0135 ± 0.043
Nonafluoropentanamide; 20000 nM
  level (log10): -0.0075 ± 0.029
Nonafluoropentanamide; 60000 nM
  level (log10): 0.0075 ± 0.05
[6]
  level (log10): -0.0825 ± 0.018
Hexafluoroamylene glycol; 6700 nM
  level (log10): -0.029 ± 0.095
Hexafluoroamylene glycol; 20000 nM
  level (log10): 0.014 ± 0.058
Hexafluoroamylene glycol; 60000 nM
  level (log10): -0.0385 ± 0.0021

## lMphg:CD62E/E-Selectin
[1]; 6700 nM
  level (log10): 0.011 ± 0.052
[1]; 20000 nM
  level (log10): 0.018 ± 0.027
[2]; 6700 nM
  level (log10): 0.016 ± 0.014
[2]; 20000 nM
  level (log10): 0.0355 ± 0.0078
[3]; 6700 nM
  level (log10): 0.0005 ± 0.0035
[3]; 20000 nM
  level (log10): -0.0185 ± 0.0078
[3]; 60000 nM
  level (log10): 0.002 ± 0.02
[4]; 6700 nM
  level (log10): -0.0225 ± 0.018
[4]; 20000 nM
  level (log10): -0.039 ± 0.0071
[4]; 60000 nM
  level (log10): 0 ± 0.023
[5]; 6700 nM
  level (log10): -0.02 ± 0.031
[5]; 20000 nM
  level (log10): -0.061 ± 0.0014
[5]; 60000 nM
  level (log10): -0.191 ± 0.013
Nonafluoropentanamide; 6700 nM
  level (log10): -0.0115 ± 0.021
Nonafluoropentanamide; 20000 nM
  level (log10): -0.009 ± 0.03
Nonafluoropentanamide; 60000 nM
  level (log10): -0.011 ± 0.0028
[6]
  level (log10): -0.0595 ± 0.00071
Hexafluoroamylene glycol; 6700 nM
  level (log10): 0.002 ± 0.0057
Hexafluoroamylene glycol; 20000 nM
  level (log10): -0.0215 ± 0.0092
Hexafluoroamylene glycol; 60000 nM
  level (log10): 0.0055 ± 0.025
